Here are results for 14 compounds from ChEMBL document CHEMBL1140951, “2-Acetylpyridine thiosemicarbazones are potent iron chelators and antiproliferative agents: redox activity, iron complexation and characterization of their antitumor activity” (J Med Chem, 2009).

The target of data set [1] is Serotransferrin (Homo sapiens) (UniProt P02787). The data set is described as follows: Induction of iron removal from 59Fe]transferrin assessed as iron release after 3 hrs relative to control. On the set-up: concentration or dose not given beside the values.
Serotransferrin (Homo sapiens), sequence (P02787 whole entry): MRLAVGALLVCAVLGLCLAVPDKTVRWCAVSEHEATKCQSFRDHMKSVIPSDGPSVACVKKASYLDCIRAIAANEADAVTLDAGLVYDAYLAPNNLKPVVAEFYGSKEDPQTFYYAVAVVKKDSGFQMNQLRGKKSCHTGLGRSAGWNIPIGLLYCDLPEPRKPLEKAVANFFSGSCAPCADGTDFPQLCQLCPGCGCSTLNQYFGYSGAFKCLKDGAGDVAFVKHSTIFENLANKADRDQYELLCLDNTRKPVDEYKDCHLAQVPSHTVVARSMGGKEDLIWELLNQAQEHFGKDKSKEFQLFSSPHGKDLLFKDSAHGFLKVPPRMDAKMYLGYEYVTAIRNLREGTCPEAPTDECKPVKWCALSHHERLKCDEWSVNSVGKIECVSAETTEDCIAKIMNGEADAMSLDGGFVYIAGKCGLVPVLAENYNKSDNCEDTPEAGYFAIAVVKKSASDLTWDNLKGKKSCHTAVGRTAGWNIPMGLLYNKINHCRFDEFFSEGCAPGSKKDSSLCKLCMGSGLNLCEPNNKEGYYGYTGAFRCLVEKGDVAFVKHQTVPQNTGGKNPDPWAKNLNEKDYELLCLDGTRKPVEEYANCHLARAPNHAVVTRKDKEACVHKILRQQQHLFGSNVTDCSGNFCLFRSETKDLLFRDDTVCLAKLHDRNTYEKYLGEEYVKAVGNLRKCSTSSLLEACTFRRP
Data set [2] shares this target. The data set is described as follows: Reduction of cellular iron uptake from 59Fe]transferrin in human SK-N-MC cells at 25 uM after 3 hrs relative to control. Details: scale not given: the % may be the effect or the level left. Type of data set: cell-based.
For data set [3], the system named is SK-N-MC. The data set is described as follows: Induction of iron mobilization in 59Fe]transferrin labeled human SK-N-MC cells assessed as iron release at 25 uM after 3 hrs by gamma scintillation counter. In kind it is functional.
In data set [4] the test system is SK-N-MC. The data set is described as follows: cells. As to conditions: Homo sapiens, 72 h.
Description: Antiproliferative activity against human SK-N-MC cells after 72 hrs by MTT assay
Data set [5] is described as follows: Octanol-water partition coefficient, log P of the compound. In kind it is physicochemical.
For data set [6], the system named is SK-N-MC. Kind of data set: Cytotoxicity against 59Fe]transferrin prelabeled human SK-N-MC cells assessed as cell viability at 25 uM after 3 hrs. In kind it is cell-based.

In general, IC50 refers to the concentration that inhibits the measured activity by half. With `CC(=O)N(O)CCCCCNC(=O)CCC(=O)N(O)CCCCCNC(=O)CCC(=O)N(O)CCCCCN` [DEFEROXAMINE], the Activity in data set [1] turned out to be 14.2%; in data set [2], 83%; with SK-N-MC [3] it was 13%. Further, it took 7350 nM to reach half-maximal inhibition with SK-N-MC [4] (IC50).

Take `Cc1c(O)c(=O)ccn1C`: in data set [1], the Activity turned out to be 20%.

Regarding `CCNC(=S)N/N=C(\c1ccccc1)c1ccccn1`, the Activity in data set [1] came out at 3.1%. The half-maximal inhibitory concentration (IC50) with SK-N-MC [4] is 3 nM.

What is called logP is the decadic logarithm of the partition coefficient of the neutral form, usually between octanol and water. For `CCNC(=S)N/N=C(\C)c1ccccn1`, the Activity in data set [1] turned out to be 2.1%; in data set [2], 4%. This compound registered a logP in data set [5] of 1.52. The compound also showed an IC50 with SK-N-MC [4] of 2 nM.

Regarding `CN(C)C(=S)NN=C(c1ccccn1)c1ccccn1`, the Activity in data set [1] stood at 2.9%; in data set [2] it was 7%; in the data set with SK-N-MC [3], 27%.

For the compound `NC(=S)N/N=C(\c1ccccc1)c1ccccn1`, in data set [1], the Activity stood at 2%.

As for `C/C(=N\NC(=S)Nc1ccccc1)c1ccccn1`, the Activity was 0.9% in data set [1], “Non-toxic” in the data set on SK-N-MC [6], 35% in data set [2] and 33% in the data set with SK-N-MC [3]. Further, the logP in data set [5] turned out to be 2.99. The same compound gave an IC50 with SK-N-MC [4] of 1 nM.

In the case of `Cc1ncc(CO)c(/C=N/NC(=O)c2ccncc2)c1O` [PYRIDOXAL ISONICOTINOYL HYDRAZONE], the Activity was determined as 11% in data set [2] and 37% in the data set on SK-N-MC [3].

For `NC(=S)NN=C(c1ccccn1)c1ccccn1`, the Activity in data set [1] stood at 1.6%.

On to `O=C(N/N=C/c1c(O)ccc2ccccc12)c1ccncc1`, for which the IC50 in the data set on SK-N-MC [4] is 500 nM.

For the compound `C/C(=N\NC(N)=S)c1ccccn1`, the Activity turned out to be 1% in data set [1] and 4% in data set [2]. In addition, in data set [5], the logP was found to be 1.52. Further, the IC50 with SK-N-MC [4] was 3530 nM.

Turning to `C/C(=N\NC(=S)N(C)C)c1ccccn1`, the Activity in data set [1] was 2.7%; in data set [2] it was 4%. The same compound gave a logP in data set [5] of 1.8. The IC50 with SK-N-MC [4] was 1 nM.

In the case of `CNC(=S)N/N=C(\C)c1ccccn1`, the Activity in data set [1] came to 1.8%; in data set [2], 4%. Moreover, in data set [5], the logP is 2.7. Moreover, the IC50 in the data set with SK-N-MC [4] stood at 11 nM.

Consider `C=CCNC(=S)N/N=C(\C)c1ccccn1`, for which the Activity in data set [1] was 1.7%; in data set [2], 4%. This compound also returned a logP in data set [5] of 1.76. In the data set on SK-N-MC [4], this compound yielded a concentration for half-maximal inhibition (IC50) of 1 nM.
